The values below come from patent US10711007B2, “Selective inhibitors of protein arginine methyltransferase 5 (PRMT5)” (Prelude Therapeutics, Incorporated, priority 2018, dated 2020).

Assay [1] concerns sDMA marks (SmD3me2s) in U-87 MG cells. Kind of assay: Western blotting for symmetric di-methyl arginine (sDMA) marks in U-87 MG cells. Format: cell-based. The conditions noted are these: Homo sapiens, 72 h; U-87 MG cell line, 3 days. As for the experimental part: Cell Treatment and Western Blotting for Detecting Symmetric Di-Methyl Arginine (sDMA) Marks
Compound Titration and Cell Culture:
Compounds were dissolved in DMSO to make 10 mM stock and 3-fold series dilutions were further conducted to make working stocks top at 1 mM. Granta-519 cells were maintained in PRMI 1640 (Corning Cellgro, Catalog #: 10-040-CV) supplemented with 10% v/v FBS (GE Healthcare, Catalog #: SH30910.03) and U-87 MG cells were maintained in DMEM (Corning Cellgro, Catalog #: 10-013-CV) with 10% FBS and 2 mM Glutamin (Corning Cellgro, Catalog #25005CV).
To determine enzyme inhibition IC50 values in Granta-519 and U-87 MG cells using Western Blot analysis. One day before experiment, Granta-519 cells were passaged to a density of 0.5×10^6 cells/ml. U-87 MG cells were trypsinized and 4×10^5 cells were seeded into 6-well plates and allow to grow overnight. The next day, Granta-519 cells were spun down at 1,500 rpm for 4 min, resuspend in fresh medium at 0.5×10^6 cells/ml and 3 mL of culture (1.5×10^6 cells) were seeded into 6 well plate. Eight-point, 3-fold serial dilutions of compound working stocks were added to cells (3 ul, 1:1,000 dilution, DMSO concentration was 0.1%; final top concentration at 1 uM) and incubated for 3 days. Cells incubated with DMSO was used as a vehicle control.
Cells were harvested 3 days later, resuspended in 15 uL PBS, lysed in 4% SDS, and homogenized by passing through homogenizer column (Omega Biotek, Catalog #: HCR003). Total protein concentrations were determined by BCA assay (ThermoFisher Scientific, Catalog #: 23225). Lysates were mixed with 5× Laemmli buffer and boiled for 5 min. Forty ug of total protein was separated on SDS-PAGE gels (Bio-Rad, catalog #: 4568083, 4568043), transferred to PVDF membrane, blocked with 5% dry milk (Bio-Rad, Catalog #: 1706404) in TBS with 0.1% v/v Tween 20 (TBST) for 1 hour at room temperature (RT), and incubated with primary antibodies (sDMA: Cell signaling, Catalog #: 13222, 1:3,000; β-Actin: sigma, Catalog #: 1:5,000) in 5% dry milk in TBST at 4° C. overnight. The next day, membranes were washed with TBST, 5×5 min, and incubated with HRP conjugated seconded antibody (GE Healthcare; Catalog #: NA934-1ML, NA931-1ML; 1:5,000) for 2 hours at RT, followed by 5×5 min washes with TBST, and incubation with ECL substrates (Bio-Rad, Catalog #: 1705061, 1705062). Chemiluminescent signal was captured with Fluochem HD2 imager (Proteinsimple). SmD3me2s bands were quantified by ImageJ. Signals were normalized to β-Actin and DMSO control. IC50 values were calculated using Graphpad Prism ([Inhibitor] vs. normalized response-Variable slope).

Assay [2] relates to fetal hemoglobin expressing erythroid cells (% F cells). The experiment in a line: % F cells by flow cytometry in human erythroid cells. Format: cell-based. The conditions noted are these: erythroid progenitors, Day 7 of treatment, N=1. As for the experimental part: Human erythroid progenitor cells were generated from purified CD34+ cells from mobilized peripheral blood purchased from AllCells. CD34+ cells were cultured in StemSpan SFEM II (StemCell Technologies, Catalog #09605) supplemented with 100 ng/ml FLT3 ligand (R&D systems, Catalog #308-FK), 100 ng/ml SCF (R&D systems, Catalog #255-SC), 20 ng/ml IL-3 (R&D systems, Catalog #203-IL), 20 ng/ml IL-6 (R&D systems, Catalog #206-IL) for 6 days, then reseeded into the same medium supplemented with 20 ng/ml SCF, 5 ng/ml IL-3, 1 U/ml EPO (R&D systems, Catalog #287-TC), 2 μM dexamethasone (Sigma-Aldrich, Catalog # D4902), 1 μM β-estradiol (Sigma-Aldrich, Catalog # E2758). Cells were treated with 0.1 and 1 μM compound from Day 8 of differentiation. Media and compound were renewed every 3 days and cells were collected for RNA isolation after 9 days of treatment.
Assessment of % F Cells by Flow Cytometry
Human erythroid cells were collected on Day 7 of treatment with compound. Cells were fixed in 0.05% glutaraldehyde (Electron Microscopy Sciences, Catalog #16019), permeabilized with 0.1% Triton-X and stained with FITC-conjugated antibody directed to fetal hemoglobin (ThermoFisher, Catalog # MHFH01). Analysis of fetal hemoglobin expressing erythroid cells (% F cells) was performed on an Attune Nxt flow cytometer (ThermoFisher).
A general note: A flow cytometer gives signals particle by particle.

In a further assay the target is PRMT5/MEP50 complex (Homo sapiens (Human), UniProt O14744). Kind of assay: Biochemical assay: PRMT5/MEP50 methylation of histone H4 based AcH4-23, SPA readout. The conditions noted are these: PRMT5/MEP50 2.5 nM, 300 nM AcH4-23, 1 μM 3H-SAM. The procedure, abridged:
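PRMT5/MEP50 (2.5 nM final) preincubated with compound 20 min at 37°C alongside 300 nM AcH4-23 peptide. Reaction started with 1 µM [3H-methyl]-SAM, run 30 min at 37°C and quenched with guanidine HCl. Streptavidin SPA beads, scintillation counting; IC50 from four-parameter Hill fit.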

PRMT5/MEP50 complex, sequence (O14744 whole entry): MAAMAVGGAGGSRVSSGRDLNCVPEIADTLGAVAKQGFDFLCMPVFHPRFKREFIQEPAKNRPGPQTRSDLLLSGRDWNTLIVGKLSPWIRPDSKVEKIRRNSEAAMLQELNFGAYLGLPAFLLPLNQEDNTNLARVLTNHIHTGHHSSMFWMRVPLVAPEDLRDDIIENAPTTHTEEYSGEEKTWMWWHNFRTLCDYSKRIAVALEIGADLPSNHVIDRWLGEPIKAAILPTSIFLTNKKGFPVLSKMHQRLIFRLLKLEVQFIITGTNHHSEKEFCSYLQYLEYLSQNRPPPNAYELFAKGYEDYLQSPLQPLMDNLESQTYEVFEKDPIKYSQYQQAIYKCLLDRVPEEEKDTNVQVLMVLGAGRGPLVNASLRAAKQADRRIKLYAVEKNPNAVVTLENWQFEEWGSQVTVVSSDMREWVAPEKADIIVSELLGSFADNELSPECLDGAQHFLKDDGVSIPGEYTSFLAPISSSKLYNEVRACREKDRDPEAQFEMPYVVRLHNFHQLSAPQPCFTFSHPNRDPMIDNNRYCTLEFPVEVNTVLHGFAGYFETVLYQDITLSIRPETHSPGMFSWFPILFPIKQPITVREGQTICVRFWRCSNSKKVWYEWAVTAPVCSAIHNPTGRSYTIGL
PRMT5/MEP50 complex, sequence (Q9BQA1 whole entry partner): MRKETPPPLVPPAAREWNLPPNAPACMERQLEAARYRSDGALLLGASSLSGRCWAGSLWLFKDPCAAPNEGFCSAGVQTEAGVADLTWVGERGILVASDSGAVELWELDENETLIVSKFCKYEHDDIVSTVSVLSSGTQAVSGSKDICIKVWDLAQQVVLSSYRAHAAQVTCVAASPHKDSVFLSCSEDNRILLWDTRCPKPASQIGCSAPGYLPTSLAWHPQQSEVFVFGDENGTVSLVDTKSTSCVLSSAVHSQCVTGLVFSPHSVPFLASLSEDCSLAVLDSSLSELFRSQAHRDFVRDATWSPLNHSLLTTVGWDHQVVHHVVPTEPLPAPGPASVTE

Usually IC50 stands for the midpoint of a concentration-inhibition curve. Higher therefore signals a need for much substance. As to `Nc1ncnc2c1ccn2[C@@H]1O[C@H]([C@@H]2OCc3ccc(Cl)cc32)[C@@H](O)[C@H]1O` [Example 5, (2R,3R,4S,5S)-2-(4-amino-7H-pyrrolo[2,3-d]pyrimidin-7-yl)-5-((R)-6-chloro-1,3-dihydroisobenzofuran-1-yl)tetrahydrofuran-3,4-diol], the figures for the IC50 (in assay [1]; against PRMT5/MEP50 complex) were 25 nM and 1 nM, respectively. For the same molecule, the “increase in % F cells compared to DMSO treated control” value in assay [2] (0.1 μM) was 1.3 fold; in assay [2] (1 μM), 3 fold.
